# Key:
# HBV polymerase = biological target: T1, HBV polymerase (Hepatitis B virus genotype D subtype ayw, UniProt P03156); assay: endogenous DNA polymerase reaction (EPR); assay type: biochemical; conditions: for HBV polymerase activity: in vitro endogenous polymerase reaction, HBV virions from HepDE19 culture fluid
# T1 construct: HBV virion stock (˜5×10^7 genome equivalents) concentrated from the supernatant of HepDE19 cells cultured in tetracycline-free medium; expressed in transfected cells; host or cells: HepDE19 cells (HBV-producing line, tetracycline-off); virions concentrated from the supernatant
# Description: Endogenous DNA polymerase reaction (EPR): The EPR was performed as previously described with modifications (Guo, H., R. Mao, T. M. Block, and J. T. Guo. 2010). Briefly, EPR mixture was assembled with 10 μl of HBV virion stock (˜5×10^7 genome equivalents) concentrated from the supernatant of HepDE19 cells cultured in tetracycline-free medium (Guo, H., D. Jiang, T. Zhou, A. Cuconati, T. M. Block, and J. T. Guo. 2007, plus 15 μl of 2×EPR buffer which consisted of 0.3 M NaCl, 0.1 M Tris-HCl (pH 8.0), 20 mM MgCl2, 2 mM dithiothreitol, 0.2% (vol/vol) Nonidet P-40, 0.2 mM each of dATP/dGTP/dTTP, and 10 μM α-^32P-dCTP. Compounds were added as indicated and water was supplemented to bring the reaction volume to 30 μl. As a positive control, 0.2 mM of dGTP in the 2×EPR buffer was replaced with 0.2 mM ddGTP. After incubation at 37° C. for 1 hours, the reaction solution was dotted on Whatman 3M filter (Millipore, Billerica, Mass.) and subjected to rinse with 10% trichloride acid for 30 min at room temperature, followed by 3 times of wash with 95% ethanol, 5 min each. The radioactivity (counts of per minute, CPM) of acid insoluble ^32P was counted with a liquid scintillation counter (PerkinElmer, Waltham, Mass.).
# HBV Dp-rcDNA and cccDNA = assay: stability of HBV DP-rcDNA and cccDNA; assay type: cell-based, hepatitis B virus
# HBV DP-rcDNA = assay: DP-rcDNA level in HepDES19 cells (Southern blot); assay type: cell-based, hepatitis B virus; conditions: for reduction of DP-rcDNA: early time point
# Excerpt: Viral nucleic acid analysis: Total cellular RNA was extracted with TRIzol reagent (Invitrogen, Grand Island, N.Y.) by following manufacturer's directions. Ten microgram of total cellular RNA was resolved in 1.5% agarose gel containing 2.2 M formaldehyde and transferred onto Hybond-XL membrane (GE Healthcare, Piscataway, N.J.) in 20×SSC buffer. Intracellular hepadnaviral core DNA and cccDNA (Hirt DNA) were extracted as described previously (Guo, H., D. Jiang, T. Zhou, A. Cuconati, T. M. Block, and J. T. Guo. 2007. Guo, H., D. Jiang, T. Zhou, A. Cuconati, T. M. Block, and J. T. Guo. 2007. Guo, H., R. Mao, T. M. Block, and J. T. Guo. 2010. Guo, H., W. S. Mason, C. E. Aldrich, J. R. Saputelli, D. S. Miller, A. R. Jilbert, and J. E. Newbold. 2005). Half of the DNA samples recovered from one well of a 6-well-plate were resolved by electrophoresis into a 1.2% agarose gel and blotted onto Hybond-XL membrane. Membranes were probed with either an α-^32P-UTP (800 Ci/mmol, Perkin Elmer) labeled hepadnaviral minus (detecting DNA) or plus strand (detecting RNA) specific full-length riboprobe and exposed to a phosphorimager screen (Fuji Film, Tokyo, Japan). Hybridization signals were visualized by Typhoon FLA-7000 (GE Healthcare) and quantified with ImageQuantTL software (GE Healthcare).
# Identification of compounds that inhibits cccDNA accumulation in HepDES19 cells: Compounds were tested on HepDES19 cells, which have a higher level of cccDNA production than HepDE19 cells (Guo, H., D. Jiang, T. Zhou, A. Cuconati, T. M. Block, and J. T. Guo. 2007). Briefly, after withdrawal of tetracycline, HepDES19 cells were left untreated, or were treated with compound at serial concentrations; tetracycline-free media was changed every other day with fresh compound supplementation. […] The cells were harvested at day 12, viral RNA (top panel), core DNA (middle panel), and Hirt DNA (DP-rcDNA and cccDNA) (bottom panels) were extracted and analyzed by Northern blot and Southern blot, respectively. Shorter exposure of the Hirt DNA blot was used for the quantitative determination of DP-rcDNA signals. […]
# T1 sequence (P03156 whole entry): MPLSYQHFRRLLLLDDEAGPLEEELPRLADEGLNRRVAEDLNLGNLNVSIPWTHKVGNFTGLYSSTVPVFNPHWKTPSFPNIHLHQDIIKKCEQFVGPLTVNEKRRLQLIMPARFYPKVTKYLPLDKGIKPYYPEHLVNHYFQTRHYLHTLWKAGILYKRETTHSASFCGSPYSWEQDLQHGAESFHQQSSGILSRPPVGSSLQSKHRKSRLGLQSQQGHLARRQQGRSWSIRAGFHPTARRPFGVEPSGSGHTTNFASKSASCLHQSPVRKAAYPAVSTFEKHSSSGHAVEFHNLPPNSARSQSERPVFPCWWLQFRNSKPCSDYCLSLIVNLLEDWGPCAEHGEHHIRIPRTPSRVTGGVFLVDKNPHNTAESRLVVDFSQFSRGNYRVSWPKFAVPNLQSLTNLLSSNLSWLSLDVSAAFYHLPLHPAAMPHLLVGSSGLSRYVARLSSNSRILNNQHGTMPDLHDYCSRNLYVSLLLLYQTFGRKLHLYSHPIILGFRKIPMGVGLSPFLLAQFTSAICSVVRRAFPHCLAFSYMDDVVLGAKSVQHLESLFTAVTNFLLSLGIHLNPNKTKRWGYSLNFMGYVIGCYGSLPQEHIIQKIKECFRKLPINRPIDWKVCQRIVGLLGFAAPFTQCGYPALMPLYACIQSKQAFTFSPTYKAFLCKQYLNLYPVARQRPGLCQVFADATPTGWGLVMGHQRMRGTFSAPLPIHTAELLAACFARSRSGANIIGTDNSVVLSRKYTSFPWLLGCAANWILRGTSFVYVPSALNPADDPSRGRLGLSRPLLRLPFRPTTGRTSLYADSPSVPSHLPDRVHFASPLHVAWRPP
SMILES,HBV polymerase activity (HBV polymerase; listed as 2-[Benzenesulfonyl-(2-chloro-5-trifluoromethyl-phenyl)-amino]-N-pyridin-4-ylmeth),HBV polymerase activity (HBV polymerase; listed as 2-[benzenesulfonyl-(2-chloro-5-trifluoromethyl-phenyl)-amino]-N-pyridin-4-ylmeth),stability of HBV Dp-rcDNA and cccDNA (HBV Dp-rcDNA and cccDNA),"reduction of putative cccDNA precursor DP-rcDNA (HBV DP-rcDNA; HepDES19 cells, day 12)",reduction of DP-rcDNA (HBV DP-rcDNA),"viral polymerase activity (HBV polymerase; endogenous polymerase reaction, compound at 3 μM)",HBV polymerase activity (HBV polymerase)
"O=C(CN(c1cc(C(F)(F)F)ccc1Cl)S(=O)(=O)c1ccccc1)NCc1ccncc1 [CCC-0975, 2-[Benzenesulfonyl-(2-chloro-5-trifluoromethyl-phenyl)-amino]-N-pyridin-4-ylmethyl-acetamide]",does not inhibit,did not inhibit,did not alter,significant reduction,significant reduction,–,–
"Cc1nc2cc(NC(=O)c3ccc(S(=O)(=O)N(C)Cc4ccccc4)cc3)ccc2s1 [CCC-0346, 4-(Benzyl-methyl-sulfamoyl)-N-(2-methyl-benzothiazol-5-yl)-benzamide]",–,–,did not alter,–,significant reduction,does not inhibit,did not inhibit
